From PubChem BioAssay (NCI)
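How tested: cells in 96-well plates exposed to compound for 48 hours at five concentrations. At the GI50, growth is halved. TGI: total growth inhibition.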

Legend:
Assay in all cases: DTP human tumour cell line panel, 48 h
MDA-MB-435 = system: MDA-MB-435
SF-295 CNS = system: SF-295 CNS
CAKI-1 renal = system: CAKI-1 renal
KM12 colon = system: KM12 colon
M14 melanoma = system: M14 melanoma
HCT-15 colon = system: HCT-15 colon
LOX IMVI melanoma = system: LOX IMVI melanoma
NCI-H23 lung = system: NCI-H23 lung
OVCAR-4 ovarian = system: OVCAR-4 ovarian
HOP-62 NSCLC = system: HOP-62 NSCLC
EKVX NSCLC = system: EKVX NSCLC
SK-MEL-5 melanoma = system: SK-MEL-5 melanoma
U251 CNS = system: U251 CNS
SNB-19 CNS = system: SNB-19 CNS
A498 renal = system: A498 renal
SK-MEL-28 melanoma = system: SK-MEL-28 melanoma
HCT-116 colon = system: HCT-116 colon
HOP-92 NSCLC = system: HOP-92 NSCLC
SF-268 CNS = system: SF-268 CNS
IGROV1 ovarian = system: IGROV1 ovarian
DU-145 prostate = system: DU-145 prostate
UACC-257 melanoma = system: UACC-257 melanoma
SF-539 CNS = system: SF-539 CNS
NCI-H460 lung = system: NCI-H460 lung
HCC-2998 colon = system: HCC-2998 colon
ACHN renal = system: ACHN renal
CCRF-CEM leukemia = system: CCRF-CEM leukemia
HS 578T breast = system: HS 578T breast

## COC(=O)[C@]12CC[C@@H](C)[C@H](C)[C@@H]1C1=CC[C@@H]3[C@@]4(C)C[C@@H](O)[C@H](O)[C@@](C)(CO)C4=CC[C@@]3(C)[C@]1(C)CC2
MDA-MB-435
  GI50: 15.4 µM
  TGI: 30.3 µM
SF-295 CNS
  GI50: 16.7 µM
  TGI: 33.1 µM
CAKI-1 renal
  GI50: 15.6 µM
  TGI: 29.8 µM
KM12 colon
  GI50: 14.8 µM
  TGI: 32.5 µM
M14 melanoma
  GI50: 17.5 µM
  TGI: 33.6 µM
HCT-15 colon
  GI50: 15.1 µM
  TGI: 31 µM
LOX IMVI melanoma
  GI50: 16.8 µM
  TGI: 34.9 µM
NCI-H23 lung
  GI50: 16.2 µM
  TGI: 33.6 µM
OVCAR-4 ovarian
  GI50: 15.9 µM
  TGI: 32.8 µM
HOP-62 NSCLC
  GI50: 21.3 µM
  TGI: 39.2 µM
EKVX NSCLC
  GI50: 15.9 µM
  TGI: 32.5 µM
SK-MEL-5 melanoma
  GI50: 12.8 µM
  TGI: 27.3 µM
U251 CNS
  GI50: 16.5 µM
  TGI: 34.1 µM
SNB-19 CNS
  GI50: 18 µM
  TGI: 38.5 µM
A498 renal
  GI50: 19 µM
  TGI: 34 µM
SK-MEL-28 melanoma
  GI50: 19.2 µM
  TGI: 40.9 µM
HCT-116 colon
  GI50: 19 µM
  TGI: 37.2 µM
HOP-92 NSCLC
  GI50: 19.2 µM
  TGI: 34.9 µM
SF-268 CNS
  GI50: 17.4 µM
  TGI: 34.8 µM
IGROV1 ovarian
  GI50: 22 µM
  TGI: 43.1 µM
DU-145 prostate
  GI50: 16.3 µM
  TGI: 32.6 µM
UACC-257 melanoma
  GI50: 20.1 µM
  TGI: 35.5 µM
SF-539 CNS
  GI50: 17.7 µM
  TGI: 34.6 µM
NCI-H460 lung
  GI50: 17.1 µM
  TGI: 33.8 µM
HCC-2998 colon
  GI50: 17.3 µM
  TGI: 34.8 µM
ACHN renal
  GI50: 17.7 µM
  TGI: 33.8 µM
CCRF-CEM leukemia
  GI50: 18.2 µM
  TGI: 37.1 µM
HS 578T breast
  GI50: 17.9 µM
  TGI: 36.4 µM
